Test results from US12162820B2 (TAIWANJ PHARMACEUTICALS CO., LTD., priority 2019, dated 2024).

How the values were obtained:
Format in all cases: biochemical
[1] = biological target: T1, HDAC1 (Homo sapiens, UniProt Q13547); assay: HDAC Inhibition Screening Assay (FLUOR DE LYS Fluorimetric Drug Discovery Kit), HDAC1; settings: for inhibition at 2 µM: 2 μM compound; for inhibition at 10 µM: 10 μM compound; for inhibition at 50 µM: 50 μM compound
T1 construct: purchased Enzo Life Sciences
Description: (§1) The HDAC1/HDAC2/HDAC3 in vitro activities are detected by Enzo Life Sciences' HDAC1/HDAC2/HDAC3 Fluorimetric Drug Discovery Kit. The assay is based on the FLUOR DE LYS® Substrate and FLUOR DE LYS® Developer combination. The assay procedure has two steps. First, the FLUOR DE LYS® Substrate, which comprises an acetylated lysine side chain, is incubated with HDAC1/HDAC2/HDAC3, respectively. Deacetylation of the substrate sensitizes the substrate so that, in the second step, treatment with the FLUOR DE LYS® Developer produces a fluorophore. The signals of the test compounds (Compounds 1˜83; at concentrations of 2 μM, 10 μM and 50 μM) in 96-well plates are detected at 360 nm or 485 nm excitation and 460 nm or 530 nm emission with a Molecular Devices SpectraMax i3 Imaging Cytometer. The HDAC1/HDAC2/HDAC3 activities are expressed in percentage of basal control minus baseline control.

[2] = biological target: T2, HDAC2 (Homo sapiens, UniProt Q92769); assay: HDAC Inhibition Screening Assay (FLUOR DE LYS Fluorimetric Drug Discovery Kit), HDAC2; settings: for inhibition at 2 µM: 2 μM compound; for inhibition at 10 µM: 10 μM compound; for inhibition at 50 µM: 50 μM compound
T2 construct: purchased Enzo Life Sciences
Description: as §1

[3] = biological target: T3, HDAC3 (Homo sapiens, UniProt O15379); assay: HDAC Inhibition Screening Assay (FLUOR DE LYS Fluorimetric Drug Discovery Kit), HDAC3; settings: for inhibition at 2 µM: 2 μM compound; for inhibition at 10 µM: 10 μM compound; for inhibition at 50 µM: 50 μM compound
T3 construct: purchased Enzo Life Sciences
Description: as §1

[4] = biological target: T4, ATX (autotaxin) (Homo sapiens, UniProt Q13822); assay: Autotaxin Inhibition Screening Assay (choline release from LPC, LPC-CR); settings: for inhibition at 4 µM: 4 μM compound; for inhibition at 20 µM: 20 μM compound; for inhibition at 50 µM: 50 μM compound
T4 construct: purchased Cayman 10803
Description: ATX (autotaxin) activity was measured by choline release from LPC in presence or absence of test compounds (Compounds 1˜83; at concentrations of 4 μM, 20 μM and 50 μM). Twenty (20) ng ATX (10803, Cayman, MI, USA) was incubated with 100 μM 14:0 LPC (855575P, Avanti, AL, USA) in a final volume of 100 μL buffer containing 50 mM Tris pH 8.0, 0.01% Triton X-100, 50 mM CaCl2, 1 unit/ml choline oxidase, 2 unit/ml horseradish peroxidase (HRP), 2 mM homovanilic acid (HVA). The relative amount of released choline was measured by HVA fluorescence in a 96-well plate. Fluorescent intensity was determined at λex/λem=320/450 nm every 60 sec for 90 min with a SpectraMax i3 (Molecular Devices, CA, USA). Data analysis was performed using GraphPad Prism (GraphPad, La Jolla CA, USA). Inhibition %=[1−(SlopeTA−SlopeBlank)/(SlopeVehicle−SlopeBlank)]×100% HDAC Inhibition Screening Assay

T1 sequence (Q13547 whole entry): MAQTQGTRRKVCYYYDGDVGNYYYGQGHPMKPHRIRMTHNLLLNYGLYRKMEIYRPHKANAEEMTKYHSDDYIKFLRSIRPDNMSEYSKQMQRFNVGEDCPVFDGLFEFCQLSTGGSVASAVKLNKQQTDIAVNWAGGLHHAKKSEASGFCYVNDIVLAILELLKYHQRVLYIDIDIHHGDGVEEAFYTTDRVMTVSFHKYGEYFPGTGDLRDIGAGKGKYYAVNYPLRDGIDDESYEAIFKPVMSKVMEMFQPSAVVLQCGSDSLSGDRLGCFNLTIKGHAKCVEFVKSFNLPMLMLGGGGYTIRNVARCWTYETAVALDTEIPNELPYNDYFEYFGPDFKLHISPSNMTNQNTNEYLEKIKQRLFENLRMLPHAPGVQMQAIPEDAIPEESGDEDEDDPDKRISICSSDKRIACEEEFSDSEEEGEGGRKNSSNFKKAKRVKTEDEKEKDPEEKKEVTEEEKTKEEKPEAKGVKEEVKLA
T2 sequence (Q92769 whole entry): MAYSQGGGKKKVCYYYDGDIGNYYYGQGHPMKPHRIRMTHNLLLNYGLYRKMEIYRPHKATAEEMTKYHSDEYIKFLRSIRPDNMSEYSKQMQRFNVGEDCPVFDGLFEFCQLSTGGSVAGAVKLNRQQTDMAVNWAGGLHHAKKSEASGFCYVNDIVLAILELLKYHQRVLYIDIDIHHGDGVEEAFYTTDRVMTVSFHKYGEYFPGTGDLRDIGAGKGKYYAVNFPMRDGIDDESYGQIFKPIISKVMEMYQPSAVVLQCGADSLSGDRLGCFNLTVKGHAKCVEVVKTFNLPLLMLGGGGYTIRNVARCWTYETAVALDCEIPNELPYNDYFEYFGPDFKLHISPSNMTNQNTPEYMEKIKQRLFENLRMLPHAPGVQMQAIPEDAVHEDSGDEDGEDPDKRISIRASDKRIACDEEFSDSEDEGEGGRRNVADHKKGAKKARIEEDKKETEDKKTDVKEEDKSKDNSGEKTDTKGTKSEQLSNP
T3 sequence (O15379 whole entry): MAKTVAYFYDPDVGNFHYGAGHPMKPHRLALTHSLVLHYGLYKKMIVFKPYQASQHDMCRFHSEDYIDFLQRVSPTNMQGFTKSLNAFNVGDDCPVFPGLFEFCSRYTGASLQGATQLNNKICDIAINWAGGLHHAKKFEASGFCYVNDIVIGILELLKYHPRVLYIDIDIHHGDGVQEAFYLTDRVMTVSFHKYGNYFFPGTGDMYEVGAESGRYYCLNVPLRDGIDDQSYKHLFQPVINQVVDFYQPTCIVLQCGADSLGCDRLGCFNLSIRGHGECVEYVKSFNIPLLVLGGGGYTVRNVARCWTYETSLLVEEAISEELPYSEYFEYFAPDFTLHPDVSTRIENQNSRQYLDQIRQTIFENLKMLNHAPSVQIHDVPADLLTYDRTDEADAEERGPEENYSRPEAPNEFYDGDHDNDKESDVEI
T3 sequence (O75376 395-489 partner limits assumed): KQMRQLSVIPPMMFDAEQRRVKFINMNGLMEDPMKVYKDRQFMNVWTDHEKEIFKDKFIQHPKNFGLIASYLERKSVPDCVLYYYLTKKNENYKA

Row | inhibition at 2 µM [1] | inhibition at 10 µM [1] | inhibition at 50 µM [1] | inhibition at 2 µM [2] | inhibition at 10 µM [2] | inhibition at 50 µM [2] | inhibition at 2 µM [3] | inhibition at 10 µM [3] | inhibition at 50 µM [3] | inhibition at 4 µM [4] | inhibition at 20 µM [4] | inhibition at 50 µM [4] | Structure (SMILES)
1 | 50 to 80% | > 80% | > 80% | > 80% | > 80% | > 80% | > 80% | > 80% | > 80% | < 50% | 50 to 80% | 50 to 80% | O=C(/C=C/c1ccc(COc2ccc3c(c2)CCCC3=O)cc1)NO [Compound 70, (E)-N-hydroxy-3-(4-(((5-oxo-5,6,7,8-tetrahydronaphthalen-2-yl)oxy)-methyl)phenyl)acrylamide]
2 | < 50% | 50 to 80% | > 80% | 50 to 80% | > 80% | > 80% | > 80% | > 80% | > 80% | < 50% | < 50% | < 50% | COc1ccc(CCNC2CCc3cc(/C=C/C(=O)Nc4ccc(F)cc4N)ccc32)cc1 (stereo not drawn) [Compound 51, (E)-N-(2-amino-4-fluorophenyl)-3-(1-((4-methoxyphenethyl)amino)-2,3-dihydro-1H-inden-5-yl) acrylamide]
3 | < 50% | < 50% | < 50% | < 50% | < 50% | < 50% | < 50% | < 50% | < 50% | < 50% | < 50% | < 50% | Nc1cc(F)ccc1NC(=O)/C=C/c1ccc(COc2ccc3c(c2)CC/C(=C\c2cc(C(F)(F)F)cc(C(F)(F)F)c2)C3=O)cc1 [Compound 71]
4 | < 50% | < 50% | < 50% | < 50% | < 50% | < 50% | < 50% | < 50% | < 50% | 50 to 80% | 50 to 80% | 50 to 80% | Nc1cc(F)ccc1NC(=O)CCCCCCC(=O)Nc1ccc2c(c1)CC/C(=C\c1cc(C(F)(F)F)cc(C(F)(F)F)c1)C2=O [Compound 5, (E)-N1-(2-amino-4-fluorophenyl)-N8-(6-(3,5-bis(trifluoromethyl)benzylidene)-5-oxo-5,6,7,8-tetrahydronaphthalen-2-yl)octanediamide]
5 | < 50% | < 50% | < 50% | < 50% | < 50% | < 50% | < 50% | < 50% | < 50% | < 50% | < 50% | < 50% | Nc1cc(F)ccc1NC(=O)/C=C/c1ccc2c(c1)CCC2NC(=O)c1cc(C(F)(F)F)cc(C(F)(F)F)c1 (stereo not drawn) [Compound 21, (E)-N-(5-(3-((2-amino-4-fluorophenyl)amino)-3-oxoprop-1-en-1-yl)-2,3-dihydro-1H-inden-1-yl)-3,5-bis(trifluoromethyl)benzamide]
6 | 50 to 80% | > 80% | > 80% | 50 to 80% | > 80% | > 80% | < 50% | 50 to 80% | > 80% | > 80% | > 80% | > 80% | O=C(CCCCCCC(=O)Nc1ccc2c(c1)CC/C(=C\c1cc(C(F)(F)F)cc(C(F)(F)F)c1)C2=O)NO [Compound 4]
7 | < 50% | 50 to 80% | > 80% | < 50% | 50 to 80% | > 80% | < 50% | 50 to 80% | > 80% | < 50% | < 50% | < 50% | O=C(/C=C/c1ccc2c(c1)CCC2NC(=O)OCc1cc(C(F)(F)F)cc(C(F)(F)F)c1)NO (stereo not drawn) [Compound 15, 3,5-bis(trifluoromethyl)benzyl (E)-(5-(3-(hydroxyamino)-3-oxoprop-1-en-1-yl)-2,3-dihydro-1H-inden-1-yl)carbamate]
8 | > 80% | > 80% | > 80% | > 80% | > 80% | > 80% | > 80% | > 80% | > 80% | < 50% | < 50% | < 50% | O=C(/C=C/c1ccc2c(c1)CCC2NCCc1cc(Cl)cc(Cl)c1)NO (stereo not drawn) [Compound 55, (E)-3-(1-((3,5-dichlorophenethyl)amino)-2,3-dihydro-1H-inden-5-yl)-N-hydroxyacrylamide]
9 | < 50% | > 80% | > 80% | 50 to 80% | > 80% | > 80% | < 50% | 50 to 80% | > 80% | < 50% | < 50% | < 50% | O=C(/C=C/c1ccc2c(c1)CCC2OCc1cc(C(F)(F)F)cc(C(F)(F)F)c1)NO (stereo not drawn) [Compound 34, (E)-3-(1-((3,5-bis(trifluoromethyl)benzyl)oxy)-2,3-dihydro-1H-inden-5-yl)-N-hydroxyacrylamide]
10 | < 50% | < 50% | < 50% | < 50% | < 50% | < 50% | < 50% | < 50% | < 50% | < 50% | < 50% | < 50% | COc1ccc(S(=O)(=O)NC2CCc3cc(/C=C/C(=O)Nc4ccc(F)cc4N)ccc32)cc1 (stereo not drawn) [Compound 19, (E)-N-(2-amino-4-fluorophenyl)-3-(1-((4-methoxyphenyl)sulfonamido)-2,3-dihydro-1H-inden-5-yl)acrylamide]
11 | < 50% | < 50% | 50 to 80% | < 50% | < 50% | 50 to 80% | < 50% | 50 to 80% | 50 to 80% | > 80% | > 80% | > 80% | O=C(CCCCNC(=O)c1ccc2c(c1)CC/C(=C\c1cc(C(F)(F)F)cc(C(F)(F)F)c1)C2=O)NO [Compound 81, (E)-6-(3,5-bis(trifluoromethyl)benzylidene)-N-(5-(hydroxyamino)-5-oxopentyl)-5-oxo-5,6,7,8-tetrahydronaphthalene-2-carboxamide]
